Measured values from ChEMBL document CHEMBL5543125, “Discovery of 2,3-Dihydro[1,4]dioxino[2,3-g]benzofuran Derivatives as Protease Activated Receptor 4 (PAR4) Antagonists with Potent Antiplatelet Aggregation Activity and Low Bleeding Tendency” (J Med Chem, 2024).
Calls of active or inactive are those of the source. The calls are words filed in the database; no cut-off is given here.

Key:
Platelet [1] = test: Inhibition of platelet aggregation in human platelet rich plasma at 20 uM preincubated for 5 mins followed by aggregation inducer addition and measured after 5 mins by light transmission aggregometry relative to control; type: functional; settings: 10 min
Platelet [2] = test: Inhibition of platelet aggregation in human platelet rich plasma preincubated for 5 mins followed by aggregation inducer addition and measured after 5 mins by light transmission aggregometry; type: functional, cell-based
[3] = Metabolic stability in human liver microsomes assessed as half life at 1 uM preincubated for 1 hr followed by NADPH addition and measured upto 60 mins by LC-MS/MS analysis; type: ADME, Microsome; settings: time < 120 min
[4] = Oral bioavailability in Sprague-Dawley rat at 50 mg/kg; type: ADME, organism-based; settings: in vivo
[5] = target: T1, Proteinase-activated receptor 4 (Homo sapiens) (UniProt Q96RI0); test: Antagonist activity at PAR4 in human filtered plasma assessed as inhibition of PAR4-activated peptide AYPGPK-NH2 induced platelet aggregation at 100 nM preincubated for 5 mins followed by aggregation inducer addition and measured after 5 mins by light transmission aggregometry relative to control; type: functional, cell-free; settings: filed as antagonist, time 10.0 min
T1 sequence (whole entry): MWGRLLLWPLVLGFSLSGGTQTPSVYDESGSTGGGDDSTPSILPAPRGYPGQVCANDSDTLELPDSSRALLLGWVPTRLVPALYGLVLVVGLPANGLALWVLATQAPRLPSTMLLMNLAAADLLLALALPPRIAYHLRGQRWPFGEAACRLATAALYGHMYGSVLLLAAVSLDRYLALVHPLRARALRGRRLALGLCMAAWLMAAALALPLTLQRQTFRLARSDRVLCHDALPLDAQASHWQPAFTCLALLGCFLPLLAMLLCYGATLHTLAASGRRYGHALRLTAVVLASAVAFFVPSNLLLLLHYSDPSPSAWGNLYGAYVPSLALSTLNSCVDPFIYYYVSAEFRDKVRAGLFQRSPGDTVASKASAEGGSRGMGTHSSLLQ

[6] = Toxicity in C57BL/6J mouse assessed as prolongation of bleeding time at 3 to 12 mg/kg, po administered via oral gavage and measured after 2 hrs; type: organism-based; settings: in vivo, dose 3-12 mg/kg

| half-life at 1 µM [3] | SMILES | inhibition at 20 µM (Platelet [1]) | other results |
| --- | --- | --- | --- |
|  | COc1nn2cc(-c3cc4c(OCC(=O)N5CCN(C(C)=O)CC5)cc5c(c4o3)OCCO5)nc2s1 | 15.1% |  |
|  | COc1nn2cc(-c3cc4c(C5CC5)cc5c(c4o3)OCCO5)nc2s1 | 75.6% | IC50 (Platelet [2]): 18.7 nM |
|  | COc1nn2cc(-c3cc4ccc5c(c4o3)CCCC5)nc2s1 | 8.02% |  |
|  | COc1nn2cc(-c3cc4c(N5CCOCC5)cc5c(c4o3)OCCO5)nc2s1 | 37.1% |  |
|  | COc1nn2cc(-c3cc4c(-c5ccc(C)cc5)cc5c(c4o3)OCCO5)nc2s1 | -0.13% |  |
| 33 min | COc1nn2cc(-c3cc4c(OCCN5CCOCC5)cc5c(c4o3)OCCO5)nc2s1 | 78.9% |  |
|  | COc1nn2cc(-c3cc4c(Cl)cc5c(c4o3)OCCO5)nc2s1 | 43.2% |  |
|  | COc1nn2cc(-c3cc4cc5c(cc4o3)OCCO5)nc2s1 | 88.4% |  |
|  | FC(F)(F)c1nn2cc(-c3cc4ccc5c(c4o3)OCCO5)nc2s1 | 3.89% |  |
| 15 min | [2H]c1cc2c(c3oc(-c4cn5nc(OC)sc5n4)cc13)OCCO2 | 79.9% | IC50 (Platelet [2]): 2.8 nM |
| 11.1 min | CSc1nn2cc(-c3cc4ccccc4o3)nc2s1 | 81% |  |
| 16.1 min | COc1nn2cc(-c3cc4c(OCC(=O)N5CCC(F)(F)CC5)cc5c(c4o3)OCCO5)nc2s1 | 75.4% |  |
|  | COc1nn2cc(-c3cc4c(C(F)(F)F)cc5c(c4o3)OCCO5)nc2s1 | 5.75% |  |
| 34.3 min | COc1nn2cc(-c3cc4c(F)cc5c(c4o3)OCCO5)nc2s1 | 74.8% | IC50 (Platelet [2]): 9.1 nM; bioavailability [4]: 4.9% |
|  | COc1nn2cc(-c3cc4ccc5c(c4o3)CCCO5)nc2s1 | 1.14% |  |
|  | CSc1nn2cc(-c3cc4ccc5c(c4o3)OCCOCCO5)nc2s1 | -1.3% |  |
|  | c1cnn2cc(-c3cc4ccc5c(c4o3)OCCO5)nc2n1 | 2.08% |  |
| 14.8 min | COc1nn2cc(-c3cc4c(OCc5nc(N6CCOCC6)sc5C)cc5c(c4o3)OCCO5)nc2s1 | 85.2% | IC50 (Platelet [2]): 9.2 nM |

| half-life at 1 µM [3] | SMILES | inhibition at 20 µM (Platelet [1]) | other results |
| --- | --- | --- | --- |
|  | CCOC(=O)N[C@@H]1CC[C@@H]2[C@@H](C1)C[C@H]1C(=O)O[C@H](C)[C@H]1[C@H]2/C=C/c1ccc(-c2cccc(F)c2)cn1 |  | Activity [5]: Active |
|  | COCCCc1cc2c(c3oc(-c4cn5nc(OC)sc5n4)cc13)OCCO2 | 4.17% |  |
|  | COc1nn2cc(-c3cc4c(OCCN5CCS(=O)(=O)CC5)cc5c(c4o3)OCCO5)nc2s1 | -4.63% |  |
|  | COc1ccc2nc(-c3cc4ccc5c(c4o3)OCCO5)cn2n1 | 0% |  |
|  | COc1nn2cc(-c3cc4ccc5ccccc5c4o3)nc2s1 | 8.27% |  |
|  | COc1nn2cc(-c3cc4ccc5c(c4o3)CCO5)nc2s1 | 83.7% | IC50 (Platelet [2]): 17.8 nM |
|  | COc1nn2cc(-c3cc4c(OCc5ccccc5)cc5c(c4o3)OCCO5)nc2s1 | 7.4% |  |
| 16.2 min | COc1nn2cc(-c3cc4ccc5c(c4o3)OCO5)nc2s1 | 77.5% | IC50 (Platelet [2]): 18.8 nM |
| 55.8 min | COc1nn2cc(-c3cc4c(OCc5csc(-c6ccc(C(=O)N(C)C)cc6)n5)cc5c(c4o3)OCCO5)nc2s1 | 80.8% |  |
|  | COc1nn2cc(-c3cc4c(OCc5csc(-c6ccc(C(F)(F)F)cc6)n5)cc5c(c4o3)OCCO5)nc2s1 | 6.57% |  |
| 59.7 min | COc1nn2cc(-c3cc4c(Br)cc5c(c4o3)OCCO5)nc2s1 | 83.1% | IC50 (Platelet [2]): 18.4 nM |
|  | COc1nn2cc(-c3cc4ccc5c(c4o3)C=CC(C)(C)O5)nc2s1 | 2.58% |  |
|  | COc1nn2cc(-c3cc4c5c(ccc4o3)OCCO5)nc2s1 | 18.4% |  |
|  | COc1nn2cc(-c3cc4ccc5c(c4o3)OCCCCO5)nc2s1 | 44.8% |  |
| 10.6 min | Cc1ccc2nc(-c3cc4ccc5c(c4o3)OCCO5)cn2n1 | 85% | IC50 (Platelet [2]): 10.8 nM |
|  | COC(=O)[C@H](c1ccccc1Cl)N1CCc2sccc2C1 [CLOPIDOGREL] |  | Activity [6]: Toxic |
|  | COc1nn2cc(-c3cc4c(OCc5csc(N6CCSCC6)n5)cc5c(c4o3)OCCO5)nc2s1 | 82.1% | IC50 (Platelet [2]): 9.2 nM |
| 18.4 min | COc1nn2cc(-c3cc4ccc5c(c4o3)OCCCO5)nc2s1 | 76.8% | IC50 (Platelet [2]): 17.1 nM |
